The source of these data is ChEMBL document CHEMBL1125187, “3-Thienyl- and 3-furylaminobutyric acids. Synthesis and binding GABAB receptor studies” (J Med Chem, 1991).

One assay concerns the target GABA B receptor (Rattus norvegicus, UniProt O88871+Q9Z0U4). Nature of the assay: Inhibition of [3H]baclofen binding to rat gamma-aminobutyric acid type B receptor. The format is protein-complex assay.
Assay [1] addresses GABA-A receptor; anion channel. The experiment in a line: Inhibition of [3H]muscimol binding to gamma-aminobutyric-acid A (GABA-A) receptor. The format is protein-complex assay, Rattus norvegicus.

Chain of GABA B receptor (Q9Z0U4 whole entry): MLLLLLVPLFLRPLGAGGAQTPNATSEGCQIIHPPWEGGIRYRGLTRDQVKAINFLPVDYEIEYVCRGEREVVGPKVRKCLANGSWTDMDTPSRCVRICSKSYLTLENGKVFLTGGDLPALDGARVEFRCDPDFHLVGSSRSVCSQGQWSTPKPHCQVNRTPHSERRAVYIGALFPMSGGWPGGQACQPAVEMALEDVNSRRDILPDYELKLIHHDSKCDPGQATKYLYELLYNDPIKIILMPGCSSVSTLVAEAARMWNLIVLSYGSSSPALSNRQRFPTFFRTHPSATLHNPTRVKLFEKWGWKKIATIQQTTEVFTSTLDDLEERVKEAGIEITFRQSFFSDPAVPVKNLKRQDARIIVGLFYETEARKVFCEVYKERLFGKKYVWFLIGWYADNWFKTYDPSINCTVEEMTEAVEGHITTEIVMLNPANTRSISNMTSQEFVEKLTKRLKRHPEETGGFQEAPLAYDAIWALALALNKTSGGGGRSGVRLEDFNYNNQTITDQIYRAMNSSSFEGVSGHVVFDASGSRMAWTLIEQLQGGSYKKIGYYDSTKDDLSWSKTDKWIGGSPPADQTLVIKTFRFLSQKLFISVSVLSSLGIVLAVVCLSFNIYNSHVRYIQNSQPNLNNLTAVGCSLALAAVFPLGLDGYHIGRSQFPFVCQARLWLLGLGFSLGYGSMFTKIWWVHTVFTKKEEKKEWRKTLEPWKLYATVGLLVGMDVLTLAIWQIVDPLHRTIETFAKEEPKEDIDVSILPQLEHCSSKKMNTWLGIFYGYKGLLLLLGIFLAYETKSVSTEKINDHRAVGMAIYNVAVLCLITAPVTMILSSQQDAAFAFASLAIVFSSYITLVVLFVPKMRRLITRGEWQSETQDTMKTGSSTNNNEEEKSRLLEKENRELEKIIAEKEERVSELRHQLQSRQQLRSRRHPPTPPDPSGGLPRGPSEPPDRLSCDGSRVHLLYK
Chain of GABA B receptor (O88871 whole entry): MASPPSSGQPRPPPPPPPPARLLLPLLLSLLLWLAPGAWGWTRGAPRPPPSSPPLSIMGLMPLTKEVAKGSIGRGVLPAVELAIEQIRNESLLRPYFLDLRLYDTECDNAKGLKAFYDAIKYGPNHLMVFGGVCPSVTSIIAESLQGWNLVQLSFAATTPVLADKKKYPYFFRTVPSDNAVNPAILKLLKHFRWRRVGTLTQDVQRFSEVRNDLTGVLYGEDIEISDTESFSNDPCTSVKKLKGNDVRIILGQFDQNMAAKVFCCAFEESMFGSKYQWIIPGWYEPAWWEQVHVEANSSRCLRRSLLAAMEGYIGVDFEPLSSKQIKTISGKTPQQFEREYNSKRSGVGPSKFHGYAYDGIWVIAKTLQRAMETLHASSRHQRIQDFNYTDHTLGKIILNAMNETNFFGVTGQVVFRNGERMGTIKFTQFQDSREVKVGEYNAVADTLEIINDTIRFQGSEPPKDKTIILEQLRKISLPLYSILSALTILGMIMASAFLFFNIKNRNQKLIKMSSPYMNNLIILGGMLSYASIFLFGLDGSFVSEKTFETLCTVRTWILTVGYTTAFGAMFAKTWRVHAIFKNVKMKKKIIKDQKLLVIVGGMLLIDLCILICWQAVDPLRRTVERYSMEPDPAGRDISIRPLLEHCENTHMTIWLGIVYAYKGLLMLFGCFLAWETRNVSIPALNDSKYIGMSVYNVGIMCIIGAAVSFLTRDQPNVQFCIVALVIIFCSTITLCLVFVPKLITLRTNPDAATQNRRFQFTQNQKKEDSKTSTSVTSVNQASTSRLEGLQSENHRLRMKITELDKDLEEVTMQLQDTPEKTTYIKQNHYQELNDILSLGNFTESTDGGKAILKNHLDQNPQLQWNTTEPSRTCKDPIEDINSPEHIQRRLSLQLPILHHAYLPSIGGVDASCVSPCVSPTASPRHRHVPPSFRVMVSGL

In the case of `NC[C@H](CC(=O)O)c1ccc(F)cc1`, the IC50 at GABA B receptor stood at 1.33 µM.
Consider `Cc1ccsc1C(CN)CC(=O)O` (centres undefined), for which the IC50 is over 100 µM in assay [1] and 124 µM at GABA B receptor.
Taken in the same sequence, the figures for `NCC(CC(=O)O)c1ccc(Br)s1` (centres undefined) were over 100 µM and 1.86 µM.
As to `NCC(CC(=O)O)c1ccc(O)cc1` (centres undefined), the half-inhibitory concentration (IC50) at GABA B receptor is over 100 µM.
As for `NCC(CC(=O)O)c1cccs1` (centres undefined), the concentration for half-maximal inhibition (IC50) in assay [1] is over 100 µM; on GABA B receptor, 9.72 µM.
`NCC(CC(=O)O)c1cccc(Cl)c1` (centres undefined) showed a concentration for half-maximal inhibition (IC50) at GABA B receptor of 20 µM.
As to `NCC(CC(=O)O)c1cc(Br)cs1` (centres undefined), the results for the IC50 (in assay [1]; at GABA B receptor) were over 100 µM and 39.1 µM, respectively.
Regarding `Cc1ccc(C(CN)CC(=O)O)o1` (centres undefined), the half-inhibitory concentration (IC50) (in assay [1]; at GABA B receptor) was over 100 µM each time.
At GABA B receptor, `NCC(CC(=O)O)c1ccccc1Cl` (centres undefined) gave an IC50 of 0.8 µM.
Regarding `NCC(CC(=O)O)c1ccco1` (centres undefined), the IC50 (in assay [1]; at GABA B receptor) was over 100 µM throughout.
Take `NCC(CC(=O)O)c1cc(Cl)cs1` (centres undefined): the concentration for half-maximal inhibition (IC50) is over 100 µM in assay [1] and 45.3 µM at GABA B receptor.
For `Cc1ccc(C(CN)CC(=O)O)s1` (centres undefined) the same measures were over 100 µM and 1.34 µM.
Taken in the same sequence, the figures for `NCC(CC(=O)O)c1ccsc1` (centres undefined) were over 100 µM and 20.9 µM.
With `NCC(CC(=O)O)c1ccc(Cl)s1` (centres undefined) [4-AMINO-3- (5-CHLOROTHIEN-2-YL)BUTANOIC ACID], the IC50 is over 100 µM in assay [1] and 0.61 µM at GABA B receptor.
